Measurements published in article PMC7460560, “Discovery of Novel Agents on Spindle Assembly Checkpoint to Sensitize Vinorelbine-Induced Mitotic Cell Death against Human Non-Small Cell Lung Cancers” (International Journal of Molecular Sciences, 2020).

Experiments:
[1] = biological target: T1, PDE5A1 (phosphodiesterase type 5) (Homo sapiens, UniProt O76074); assay: PDE5A1 assay kit (BPS Bioscience), fluorescence polarization with FAM-cyclic-3', […]'-GMP; type: biochemical
T1 construct: gene PDE5A

[2] = biological target: T2, tubulin (Sus scrofa, UniProt P02550+P02554); assay: in vitro pure tubulin polymerization assay (Cytoskeleton kit, […] nm), […] inhibition at […]; type: biochemical; conditions: read-out: % inhibition at 1000 nM
T2 construct: with alpha-tubulin
T2 sequence (P02554 whole entry): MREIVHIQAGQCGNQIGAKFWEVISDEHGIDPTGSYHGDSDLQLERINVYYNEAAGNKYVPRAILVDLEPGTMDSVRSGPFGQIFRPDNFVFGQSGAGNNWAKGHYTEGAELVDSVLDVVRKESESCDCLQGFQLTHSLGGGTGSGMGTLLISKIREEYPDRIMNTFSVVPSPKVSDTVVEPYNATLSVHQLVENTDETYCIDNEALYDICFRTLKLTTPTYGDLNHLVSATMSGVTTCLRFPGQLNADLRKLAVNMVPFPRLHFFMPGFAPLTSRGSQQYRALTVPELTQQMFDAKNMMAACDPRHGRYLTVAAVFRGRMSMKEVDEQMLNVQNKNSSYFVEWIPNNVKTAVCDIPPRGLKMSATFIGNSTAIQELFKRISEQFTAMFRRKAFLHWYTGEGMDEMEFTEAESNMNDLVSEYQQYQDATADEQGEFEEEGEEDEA
T2 sequence (P02550 whole entry): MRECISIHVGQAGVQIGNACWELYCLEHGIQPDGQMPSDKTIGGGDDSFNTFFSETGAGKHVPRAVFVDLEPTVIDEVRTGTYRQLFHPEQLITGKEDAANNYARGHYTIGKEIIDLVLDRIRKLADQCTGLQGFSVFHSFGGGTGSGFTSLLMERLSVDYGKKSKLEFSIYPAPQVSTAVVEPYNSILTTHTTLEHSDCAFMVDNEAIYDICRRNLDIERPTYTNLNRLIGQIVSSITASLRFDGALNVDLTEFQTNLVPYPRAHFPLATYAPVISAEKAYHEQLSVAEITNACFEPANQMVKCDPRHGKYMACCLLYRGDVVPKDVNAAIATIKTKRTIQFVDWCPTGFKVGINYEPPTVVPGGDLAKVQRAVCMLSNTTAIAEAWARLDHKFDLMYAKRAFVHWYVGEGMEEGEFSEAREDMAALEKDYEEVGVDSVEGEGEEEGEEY

SMILES | IC50 [1] [µM] | inhibition at 1 µM [2] [%]
CCCn1nnc2c(OC)nc(-c3cc(S(=O)(=O)N4CCN(C)CC4)ccc3OC)nc21 [YL-9] | 0.632 | –
CCC1=C[C@@H]2CN(C1)Cc1c([nH]c3ccccc13)[C@@](C(=O)OC)(c1cc3c(cc1OC)N(C)[C@H]1[C@@](O)(C(=O)OC)[C@H](OC(C)=O)[C@]4(CC)C=CCN5CC[C@]31[C@@H]54)C2 [vinorelbine] | – | 16.7
